Laboratory results taken from patent US10752647B2, “N-phosphonoxymethyl prodrugs of hydroxyalkyl thiadiazole derivatives” (DAIICHI SANKYO COMPANY, LIMITED, priority 2017, dated 2020).
≈ marks a conversion by molar mass, not a printed value. Like-named read-outs stand apart in the source and are kept apart here.

What was measured:
[1] = Solubility of parent compounds and prodrugs in phosphate buffer; format: physicochemical; details: aqueous buffer, thermodynamic from solid, 25° C., more than 4 weeks, pH 7.0
Description: Parent compounds: About 5 mg of parent compounds (biologically active forms of prodrugs) were added to 950 μL of phosphate buffer, and mixed vigorously for 1 hour at 25° C. Then, these samples were stored at 25° C. for more than 4 weeks and filtered to remove undissolved parent compounds. Next, these solutions were diluted with 50% aqueous acetonitrile solution. The resulting test solutions were assayed by HPLC. Prodrugs: About 30 mg of prodrugs were added to 120 μL of phosphate buffer, and mixed vigorously for 1 hour at 25° C. After shaking, pH of these solutions were adjusted at pH 7.0 by 1 mol/L NaOH solution. Then, the total volume were adjusted to 280 μL with purified water. Next, these solutions were stored at 25° C. for more than 4 weeks and filtered to remove undissolved compounds. These solutions were diluted with 50% aqueous acetonitrile solution. The resulting test solutions were assayed by HPLC.

[2] = system: Clostridium difficile 2009155, a NAP1/027 strain; experiment: Hamster CDI model; format: in vivo; details: 0.3 mg/kg/day for 5 days
Description: d) Method for Testing Therapeutic Effect of Compounds in Hamster CDI Model
The in vivo efficacy of Compound No. 1 was evaluated in a hamster CDI model caused by Clostridium difficile 2009155, a NAP1/027 strain. The Syrian hamsters (7-9 weeks old, National Centre for Laboratory Animal Sciences, National Institute Nutrition, Hyderabad, India.) were acclimatized at least 7 days prior the experiment. Hamsters primed with a single subcutaneous injection of clindamycin (30 mg/kg) 1 day prior to infection. Hamsters were infected by oral gavage with 1 mL of spore suspension (2-3×10^5) prepared in PBS. The test compounds were prepared using the 0.25 w/v % Methyl Cellulose Solution for oral administration and 10% HP ß-CD for SC administration and treatment was started 6 h post infection at an interval of 24 h for 5 days. Hamsters were administered a dose of 0.03-0.3 mg/kg/day for 5 days. The death and survival time of the hamsters treated with test compound administered group and non-treated group (vehicle-control) were recorded once daily for 35 days and were compared. A change in the survival time was used as an index of therapeutic effect.

[3] = Solubility in Japanese Pharmacopeia First Fluid (JP1) and Second Fluid (JP2); format: physicochemical; details: thermodynamic from solid, room temperature
Description: Method of Testing Solubility in Water and Neutral Buffer A 10 mmol/L solution of the test compound was prepared in DMSO and dispensed 100 μL of 10 mmol/L DMSO stock solutions into labeled glass tubes in duplicate, one for Japanese Pharmacopeia First Fluid (JP1) and second for Japanese Pharmacopeia Second Fluid (JP2). After evaporation of DMSO from each tube, 500 μL of JP1 and JP2 fluid were added in each tube, respectively. These tubes were sonicated for 1 minute and placed on shaker for 30 minutes with an interval of 30 seconds at every 5 minute. Tubes were placed in dark at room temperature for 1 hour and solution was filtered through membrane filter. The filtrate was diluted 2-fold and 10-fold. The resulting test solutions was analyzed and quantified against the standards using UPLC (standard preparation-10 mmol/L solution in DMSO is serially diluted with 50% aqueous acetonitrile solution to prepare 2 solutions; 100 μmol/L standard solution and 5 μmol/L standard solutions).

[4] = parent compound, phosphate buffer
[5] = pH 1.2, simulated gastric fluid, Japanese Pharmacopeia First Fluid (JP1), read-out: Solubility JP1
[6] = pH 6.8, aqueous buffer, Japanese Pharmacopeia Second Fluid (JP2), read-out: Solubility JP2
[7] = prodrug, phosphate buffer adjusted with NaOH

Row | SMILES | solubility at 30 min [3, 5] [mg/mL] | solubility at 30 min [3, 6] [mg/mL] | solubility [1, 7] [mg/mL] | other results
1 | CCc1[nH]c(C(=O)N[C@@H]2CCN(c3nnc([C@](C)(O)CO)s3)C[C@@H]2OC)nc1Cl [Compound A, 4-chloro-N-[(3S,4R)-1-{5-[(2R)-1,2-dihydroxypropan-2-yl]-1,3,4-thiadiazol-2-yl}-3-methoxypiperidin-4-yl]-5-ethyl-1H-imidazole-2-carboxamide] | – | – | – | solubility [1, 4]: 0.775 mg/mL (≈ 1740 µM)
2 | CCc1[nH]c(C(=O)N[C@@H]2CCN(c3nnc([C@@H](O)CO)s3)C[C@@H]2OC)nc1Cl [Compound B, 4-chloro-N-[(3S,4R)-1-{5-[(1S)-1,2-dihydroxyethyl]-1,3,4-thiadiazol-2-yl}-3-methoxypiperidin-4-yl]-5-ethyl-1H-imidazole-2-carboxamide] | – | – | – | solubility [1, 4]: 0.38 mg/mL (≈ 882 µM)
3 | CCc1nc(C(=O)N[C@@H]2CCN(c3nnc(C(C)(C)O)s3)C[C@@H]2OC)n(COP(=O)(O)O)c1Cl [Compound No. 2, [5-Chloro-4-ethyl-2-({(3S,4R)-1-[5-(2-hydroxypropan-2-yl)-1,3,4-thiadiazol-2-yl]-3-methoxypiperidin-4-yl}carbamoyl)-1H-imidazol-1-yl]methyl dihydrogen phosphate] | > 1.12 | > 1.09 | – | Survival on day 35 [2]: 100%
4 | CCc1c(Cl)nc(C(=O)N[C@@H]2CCN(c3nnc([C@](C)(O)CO)s3)C[C@@H]2OC)n1COP(=O)(O)O [Compound No. 3, (4-Chloro-2-{[(3S,4R)-1-{5-[(2R)-1,2-dihydroxypropan-2-yl]-1,3,4-thiadiazol-2-yl}-3-methoxypiperidin-4-yl]carbamoyl}-5-ethyl-1H-imidazol-1-yl)methyl dihydrogen phosphate] | > 1.35 | > 1.32 | 107 | –
5 | CCc1nc(C(=O)N[C@@H]2CCN(c3nnc([C@](C)(O)CO)s3)C[C@@H]2OC)n(COP(=O)(O)O)c1Cl [Compound No. 4, (5-Chloro-2-{[(3S,4R)-1-{5-[(2R)-1,2-dihydroxypropan-2-yl]-1,3,4-thiadiazol-2-yl}-3-methoxypiperidin-4-yl]carbamoyl}-4-ethyl-1H-imidazol-1-yl)methyl dihydrogen phosphate] | > 1.28 | > 1.51 | 102 | –
6 | CCc1c(Cl)nc(C(=O)N[C@@H]2CCN(c3nnc([C@H](C)O)s3)C[C@@H]2OC)n1COP(=O)(O)O [Compound No. 5, (4-Chloro-5-ethyl-2-{[(3S,4R)-1-{5-[(1S)-1-hydroxyethyl]-1,3,4-thiadiazol-2-yl}-3-methoxypiperidin-4-yl]carbamoyl}-1H-imidazol-1-yl)methyl dihydrogen phosphate] | – | – | 101 | –
7 | CCc1nc(C(=O)N[C@@H]2CCN(c3nnc([C@H](C)O)s3)C[C@@H]2OC)n(COP(=O)(O)O)c1Cl [Compound No. 6, (5-Chloro-4-ethyl-2-{[(3S,4R)-1-{5-[(1S)-1-hydroxyethyl]-1,3,4-thiadiazol-2-yl}-3-methoxypiperidin-4-yl]carbamoyl}-1H-imidazol-1-yl)methyl dihydrogen phosphate] | – | – | 104 | –
8 | CCc1c(Cl)nc(C(=O)N[C@@H]2CCN(c3nnc([C@H](O)CO)s3)C[C@@H]2OC)n1COP(=O)(O)O [Compound No. 7, (4-Chloro-2-{[(3S,4R)-1-{5-[(1R)-1,2-dihydroxyethyl]-1,3,4-thiadiazol-2-yl}-3-methoxypiperidin-4-yl]carbamoyl}-5-ethyl-1H-imidazol-1-yl)methyl dihydrogen phosphate] | – | – | 107 | –
9 | CCc1nc(C(=O)N[C@@H]2CCN(c3nnc([C@H](O)CO)s3)C[C@@H]2OC)n(COP(=O)(O)O)c1Cl [Compound No. 8, (5-Chloro-2-{[(3S,4R)-1-{5-[(1R)-1,2-dihydroxyethyl]-1,3,4-thiadiazol-2-yl}-3-methoxypiperidin-4-yl]carbamoyl}-4-ethyl-1H-imidazol-1-yl)methyl dihydrogen phosphate] | – | – | 102 | –
10 | CCc1nc(C(=O)N[C@@H]2CCN(c3nnc([C@@H](O)CO)s3)C[C@@H]2OC)n(COP(=O)(O)O)c1Cl [Compound No. 10, (5-Chloro-2-{[(3S,4R)-1-{5-[(1S)-1,2-dihydroxyethyl]-1,3,4-thiadiazol-2-yl}-3-methoxypiperidin-4-yl]carbamoyl}-4-ethyl-1H-imidazol-1-yl)methyl dihydrogen phosphate] | – | – | 105 | –
